Test results published in patent US20230200390A1, “SELECTIVE HERBICIDES BASED ON SUBSTITUTED ISOXAZOLIN CARBOXAMIDES AND MEFENPYR-DIETHYL” (BAYER AKTIENGESELLSCHAFT, priority 2020, published 2023).

Columns and labels:
Assay type in all cases: in vivo
[1] = tested on: spring barley, HORVS Montoya; experiment: Seed treatment with safener; post-emergence herbicide, crop damage; conditions: for HER effect + SAF / Reduction [%] / Reduction [Difference]: mefenpyr-diethyl 0.5 g a.i./kg seed
Text: (§1) For safener seed treatment trials, sufficient seed amounts of the respective crops (spring wheat (TRZAS); spring barley (HORVS)) were weighed into screw cap glass bottles with a minimum volume trice of the seeds.
(§2) As a first step, specified safeners formulated as wettable powder (WP) or wettable granules (WG) were weighed out for the required dosages (g a.i./kg seed), corresponding to the seed amounts. The safener amounts were mixed with a coloured slurry blind formulation type, prediluted with milk at 3.5% fat rate (25 mgs slurry formulation plus 2 ml milk per 10 grams of seed). A tube roller was used for coating. The solutions were gradually pipetted each on the rotating seeds followed by coating for min. 3 hours until all liquid had been soaked up by the seeds. Thereafter, the coated seeds were put flat on open trays for drying over night at room temperature.
(§3) Treated seeds were then placed into pots (7 cm diameter) on the surface of sandy loam, pressed down, flat covered with additional soil and finally covered with sandy soil, also pressed down, watered, and kept under good growth conditions in a greenhouse, until the plants had reached 2-leaf-stage (BBCH 12).
(§4) At that stage, post-emergence application of the specified herbicides was done on:
(§5) a) pot sets containing plants with safener-coated seeds as described above,
(§6) b) as a reference, pot sets of plants without seed treatment.
(§7) The herbicides were formulated as wettable powder (WP). Equivalent to the spray area, compound amounts were weighed out and diluted related to the water application rate (300 l/ha) to an aqueous suspension plus additive (1 l/ha MERO). Dosage related equivalents were conventionally sprayed on trays with the potted plants.
(§8) After application, the test plants were kept under good growth conditions in a greenhouse.
(§9) Assessment timings were 10 and 21 days after treatment (DAT) with the herbicide, by visual scoring of the crop damage in % (comparison of untreated with treated plants, either sprayed only with herbicide or with herbicide on plants with treated seeds).

[2] = tested on: spring wheat, TRZAS Triso; experiment: as above; conditions: for HER effect + SAF [%] (crop damage) / Reduction [%] / Reduction [Difference]: mefenpyr-diethyl 0.5 g a.i./kg seed; for HER effect [%] (crop damage, herbicide without safener): no safener
Text: as §1, §2, §3, §4, §5, §6, §7, §8, §9

[3] = tested on: spring barley, HORVS Montoya; experiment: Tank-mix; post-emergence: crop damage by herbicide with/without safener mefenpyr-diethyl
Protocol: (§10) Seeds of crops (spring wheat, TRZAS; spring barley, HORVS; maize, ZEAMA) were placed in sandy loam soil in peat pots, covered with soil and cultivated in a greenhouse under good growth conditions. Two to three weeks after sowing, the test plants were treated at the 1 to 3-leaf stage. The herbicide/safener active compound combinations according to the invention, formulated as wettable powders or emulsion concentrates, and, in parallel tests, the correspondingly formulated individual active compounds were sprayed onto the green parts of the plants in various dosages using an amount of water of 300 l/ha (converted).
(§11) The pots were returned under good growing conditions in a glasshouse and a visual assessment of herbicidal effects was made at intervals from 1 to 3 weeks after herbicide application (DAT=days after treatment). Assessment was on a percentage basis in comparison with untreated control plants (0%=no injury, 100%=complete kill).

[4] = tested on: spring wheat, TRZAS Triso; experiment: as above; conditions: 10 DAT
Protocol: as §10, §11

[5] = HER 8 g a.i./ha post-emergence, 21 DAT
[6] = HER 8 g a.i./ha + mefenpyr-diethyl 100 g a.i./ha, 21 DAT
[7] = HER 32 g a.i./ha post-emergence, 10 DAT
[8] = herbicide alone 32 g a.i./ha post-emergence, 10 DAT
[9] = HER 8 g a.i./ha + mefenpyr-diethyl 50 g a.i./ha, 10 DAT
[10] = HER 32 g a.i./ha + mefenpyr-diethyl 100 g a.i./ha, 10 DAT
[11] = herbicide alone 8 g a.i./ha, 10 DAT
[12] = herbicide alone 32 g a.i./ha, 10 DAT
[13] = HER 4 g a.i./ha + mefenpyr-diethyl 50 g a.i./ha, 10 DAT
[14] = HER 16 g a.i./ha + mefenpyr-diethyl 100 g a.i./ha, 10 DAT
[15] = HER 4 g a.i./ha + mefenpyr-diethyl 50 g a.i./ha
[16] = HER 16 g a.i./ha + mefenpyr-diethyl 100 g a.i./ha

For `C=CC1(C(=O)NC2CC=C(C(=O)OC)C2)CC(c2cc(F)cc(F)c2)=NO1` (mixture of isomers) [Example 1.60], the “HER effect + SAF” value [1, 5] was 10%, the “Reduction [%]” value [1, 5] was 88% and the “Reduction [Difference]” value [1, 5] was 70. The HER effect ([1]; herbicide alone 8 g a.i./ha post-emergence, 21 DAT) was 80%, the “HER effect + SAF [%] (crop damage)” value ([2]; 21 DAT, HER dose 8 g a.i./ha) was 0% and the “Reduction [%]” value ([2]; 21 DAT, HER dose 8 g a.i./ha) was 100%. For the same compound, the “Reduction [Difference]” value ([2]; 21 DAT, HER dose 8 g a.i./ha) was 93, the “HER effect [%] (crop damage, herbicide without safener)” value ([2]; 21 DAT, HER dose 8 g a.i./ha) was 93% and the “HER effect + SAF [%] (crop damage)” value ([2]; 21 DAT, HER dose 32 g a.i./ha) was 10%. For the same compound, the “Reduction [%]” value ([2]; 21 DAT, HER dose 32 g a.i./ha) was 89%, the “Reduction [Difference]” value ([2]; 21 DAT, HER dose 32 g a.i./ha) was 85 and the “HER effect [%] (crop damage, herbicide without safener)” value ([2]; 21 DAT, HER dose 32 g a.i./ha) was 95%. The “HER effect + SAF” value [3, 6] was 20%, the “Reduction [%]” value [3, 6] was 75% and the “Reduction [Difference]” value [3, 6] was 60. The HER effect ([3]; herbicide alone 8 g a.i./ha, 21 DAT) was 80%.

In the case of `COC(=O)C1C=CC(NC(=O)C2(C(F)(F)F)CC(c3cccc(F)c3)=NO2)C1` (stereo not shown) [Example 1.18], the “HER effect + SAF” value [1, 7] is reported as 20%, the “Reduction [%]” value [1, 7] is reported as 75% and the “Reduction [Difference]” value [1, 7] is reported as 60. For the same compound, the HER effect [1, 8] was 80%, the “HER effect + SAF” value [3, 9] was 0% and the “Reduction [%]” value [3, 9] was 100%. The “Reduction [Difference]” value [3, 9] was 20, the “HER effect + SAF” value [3, 10] was 10% and the “Reduction [%]” value [3, 10] was 88%. For the same compound, the “Reduction [Difference]” value [3, 10] was 70, the HER effect [3, 11] was 20% and the HER effect [3, 12] was 80%.

For `C=CCOC(=O)C1CC(NC(=O)C2(C=C)CC(c3cc(C)cc(F)c3)=NO2)CO1` (mixture of isomers) [Example 1.85], the “HER effect + SAF” value [1, 7] was 30%, the “Reduction [%]” value [1, 7] was 63% and the “Reduction [Difference]” value [1, 7] was 50. The HER effect [1, 8] was 80%, the “HER effect + SAF” value [3, 9] was 0% and the “Reduction [%]” value [3, 9] was 100%. The “Reduction [Difference]” value [3, 9] was 20, the “HER effect + SAF” value [3, 10] was 20% and the “Reduction [%]” value [3, 10] was 75%. The “Reduction [Difference]” value [3, 10] was 60, the HER effect [3, 11] was 20% and the HER effect [3, 12] was 80%.

For `CCOC(=O)C1CC(NC(=O)C2(C)CC(c3cccc(F)c3)=NO2)CO1` (mixture of isomers) [Example 1.67], the “HER effect + SAF [%] (crop damage)” value ([2]; 10 DAT, HER dose 4 g a.i./ha) was 10%, the “Reduction [%]” value ([2]; 10 DAT, HER dose 4 g a.i./ha) was 80% and the “Reduction [Difference]” value ([2]; 10 DAT, HER dose 4 g a.i./ha) was 40. The “HER effect [%] (crop damage, herbicide without safener)” value ([2]; 10 DAT, HER dose 4 g a.i./ha) was 50%, the “HER effect + SAF [%] (crop damage)” value ([2]; 10 DAT, HER dose 16 g a.i./ha) was 20% and the “Reduction [%]” value ([2]; 10 DAT, HER dose 16 g a.i./ha) was 71%. The “Reduction [Difference]” value ([2]; 10 DAT, HER dose 16 g a.i./ha) was 50, the “HER effect [%] (crop damage, herbicide without safener)” value ([2]; 10 DAT, HER dose 16 g a.i./ha) was 70% and the “HER effect + SAF” value [3, 13] was 0%. For the same compound, the “Reduction [%]” value [3, 13] was 100%, the “Reduction [Difference]” value [3, 13] was 30 and the “HER effect + SAF” value [3, 14] was 0%. The “Reduction [%]” value [3, 14] was 100%, the “Reduction [Difference]” value [3, 14] was 60 and the HER effect ([3]; herbicide alone 4 g a.i./ha, 10 DAT) was 30%. For the same compound, the HER effect ([3]; herbicide alone 16 g a.i./ha, 10 DAT) was 60%, the “HER effect + SAF” value [4, 15] was 10% and the “Reduction [%]” value [4, 15] was 80%. For the same compound, the “Reduction [Difference]” value [4, 15] was 40, the “HER effect + SAF” value [4, 16] was 20% and the “Reduction [%]” value [4, 16] was 71%. The “Reduction [Difference]” value [4, 16] was 50, the HER effect ([4]; herbicide alone 4 g a.i./ha) was 50% and the HER effect ([4]; herbicide alone 16 g a.i./ha) was 70%.
